Measured values published in US12377094B2, “Therapeutic compositions and methods for treating checkpoint inhibitor-resistant tumors using plinabulin-based combination therapies” (BeyondSpring Pharmaceuticals, Inc., priority 2021, dated 2025).

Assay: Dose-escalation Phase I study of nivolumab, ipilimumab and plinabulin: safety (DLT, RP2D, treatment-related AEs, irAEs)
Format: in vivo, human
Conditions: with nivolumab 1 mg/kg and ipilimumab 3 mg/kg, IV day 1 of 21 day cycle; dose-level 2
From the text: In a dose-escalation Phase I study, patients with recurrent extensive-stage small cell lung cancer (SCLC) who had progressed on prior platinum-based chemotherapy were enrolled using a 3+3 design. The primary objective was to determine dose-limiting toxicities (DLT's) and recommended Phase 2 dose (RP2D). Patients were evaluable for DLT if they received at least two cycles of therapy; DLT period was defined as the first six weeks. Secondary endpoints were ORR, PFS and frequency of irAEs. Correlative analysis included inflammatory biomarkers: hsCRP, ESR, SAA and haptoglobin.
Patients received nivolumab (1 mg/kg), ipilimumab (3 mg/kg) and plinabulin (as per dose escalation schema) IV on day 1 of each 21 day cycle. After completion of 4 cycles, patients continued therapy with nivolumab (240 mg) and plinabulin every 2 weeks till progression or intolerable toxicity. Patients were evaluable for DLT if they received at least 2 cycles of therapy; DLT period was defined as the first 6 weeks from C1D1.

CC(C)(C)c1[nH]cnc1/C=c1\[nH]c(=O)/c(=C/c2ccccc2)[nH]c1=O [plinabulin, (3Z,6Z)-3-Benzylidene-6-{[5-(2-methyl-2-propanyl)-1H-imidazol-4-yl]methylene}-2,5-piperazinedione]
recommended Phase 2 dose (RP2D) of plinabulin: 30 mg/m2
